According to US20090291950A1, “BICYCLIC HETEROARYL INHIBITORS OF PDE4” (KALYPSYS, INC., priority 2006, published 2009):

Columns and labels:
[1] = molecular target: T1, PDE4B (Homo sapiens, UniProt Q07343); test: coupled PDE/AK bioluminescent assay; type: biochemical; settings: catalytic domain of PDE4B
T1 construct: hexahistidine (His6) (N); made in house
Text: Phosphodiesterases regulate the activity of the second messenger cyclic adenosine monophosphate (cAMP) by hydrolyzing cAMP to adenosine monophosphate (AMP). We developed a novel coupled PDE/AK bioluminescent high-throughput assay to measure the activity of phosphodiesterases. In the PDE/AK assay, the AMP produced from the hydrolysis of cAMP by phosphodiesterase is converted to adenosine diphosphate (ADP) by the phosphotransferase activity of adenylate kinase (also known as ADK or myokinase). Adenylate kinase will catalyze the conversion of 1 mole of AMP and 1 mole of ATP into 2 moles of ADP. Thus the conversion of AMP to ADP will result in the subsequent loss of ATP. The decrease in ATP concentration can be monitored as light output using luciferase in a reaction that requires ATP to produce light. The PDE/AK assay uses luciferase, which catalyzes the production of light from ATP present in the reaction mix. The amount of emitted light is inversely proportional to the level of AMP present in the reaction. Test compounds are incubated with the phosphodiesterases and phosphodiesterase inhibitors will decrease the rate of cAMP hydrolysis and decrease the subsequent production of AMP. Thus phosphodiesterase inhibitors will decrease the conversion of ATP to ADP and result in the greatest emission of light.
Compounds may be screened for functional potency in in vitro biochemical assays for their ability to inhibit the activity of phosphodiesterase (PDE) enzymes. A novel coupled PDE/AK assay was utilized to measure the inhibitory activity of compounds on PDE isoforms. The catalytic domain of PDE4B was fused to an amino-terminus hex-histidine affinity tag and purified. PDE4B enzyme was incubated with compounds for 10 minutes. Cyclic AMP substrate, ATP and adenylate kinase were then added to the PDE enzyme mix and incubated for 45 minutes at room temperature. A commercial ATP detection assay, Perkin Elmer's easyLite ATP detection reagent, was then added to measure the relative amount of ATP present in the reaction. After 10 minute incubation, the luminescent signal was quantitated with either the Perkin Elmer Viewlux or Molecular Devices Acquest or Analyst. Roflumilast and Rolipram are the positive controls used in the assay.
The PDE/AK assay can be performed with any cAMP dependent phosphodiesterase, and can be performed in 96-, 384-, or 1536-well plates. […] Specifically, the use of radioactive substrates in a phosphodiesterase activity assay requires special protocols for handling and waste disposal, and reduced throughput. Modified substrates add the additional complexity of potentially altering the binding to the phosphodiesterase catalytic site. Fluorescently modified substrates may cause fluorescence artifacts that may interfere in the interpretation of assay results. The use of beads that selectively bind to either the cAMP or AMP may cause an additional complexity in reagent handling. The use of antibodies that selectively bind to either cAMP or AMP can be extremely costly with a relatively small signal to noise ratio. Therefore, the novel PDE/AK assay represents a simple, cost-effective alternative to known methods.

[2] = tested on: dry eye (corneal staining, tear breakup time); test: Lacrimal gland inflammation-induced dry eye in rabbits; type: in vivo; settings: topical ocular BID, rabbit ConA dry eye
Text: A more detailed description of the assay used herein may be found in Naglehout, T J et al. 2005, “Preservation of Tear Film Integrity and Inhibition of Corneal Injury by Dexamethasone in a Rabbit Model of Lacrimal Gland Inflammation-Induced Dry Eye,”J. Ocular Pharm. Ther., 21:2. 139-148, the disclosure of which is hereby incorporated by reference as if written herein in its entirety. Rabbits (n=4/group) were randomized into treatment groups and dosed topically BID with maxidex vehicle or test drug beginning one day prior to initiation of dry eye. Each rabbit received bilateral lacrimal gland injections of saline or ConA (300 μg/30 μl) and topical ocular dosing was continued BID throughout the study. Desiccation was initiated 1-2 hours following lacrimal gland injection by placing conscious rabbits in the environmental chamber (10-15% humidity/72° F.). Following 72 consecutive hours of exposure to this dry environment, the animals were anesthetized and sutures were placed in each upper and lower eyelid and lifted to form a corneal/conjunctival cup. Methylene blue dye (1 mL, 1% in dH2O) was added to the cup for three minutes and the excess removed by washing with 200 mL BSS®. The contralateral eye was then stained using the same procedure. Rabbits were euthanized immediately following the staining procedure and the eyes were excised. The corneas were isolated with a trephine and the 9.5-mm punch of the cornea was placed in 2 mL acetone/saturated sodium sulfate (7:3, vol./vol.). Absorbance of the extracted dye was determined at 660 nm. TBUT was quantified in a separate group of treated animals. TBUT was determined by instilling 5 μL sodium fluorescein into the cul de sac and manually blinking the lids to distribute the fluorescein within the tear film. Under slit lamp observation, the eye was held open and the time whereby one or more black spots or streaks appeared in the precorneal tear film was recorded. The rabbits were euthanized 3 days following ConA inj ection.

T1 sequence (Q07343 330-659 limits assumed, species assumed): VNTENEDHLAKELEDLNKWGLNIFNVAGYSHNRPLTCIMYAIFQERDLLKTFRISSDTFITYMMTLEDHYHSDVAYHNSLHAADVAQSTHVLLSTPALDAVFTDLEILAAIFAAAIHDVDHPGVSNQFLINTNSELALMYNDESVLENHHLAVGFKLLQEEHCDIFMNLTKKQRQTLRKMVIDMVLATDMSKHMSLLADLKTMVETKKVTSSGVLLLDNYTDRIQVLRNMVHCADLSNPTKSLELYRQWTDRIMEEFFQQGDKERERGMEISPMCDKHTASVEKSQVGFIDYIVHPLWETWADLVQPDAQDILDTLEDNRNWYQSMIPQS

In the case of `COc1ccc2c(Nc3c(Cl)cncc3Cl)cc(OCCN(C)C)nc2c1OC1CCCC1` [Example 25, 8-(Cyclopentyloxy)-N-(3,5-dichloropyridin-4-yl)-2-(2-(dimethylamino)ethoxy)-7-methoxyquinolin-4-amine], the IC50 [1] is reported as at most 1000 nM, the “Activity at Percent Concentration Tested” value ([2]; 1 × 10^−2 percent concentration) is reported as “Inactive” and the “Activity at Percent Concentration Tested” value ([2]; 1 × 10^−4 percent concentration) is reported as “Inactive”. For the same compound, the “Activity at Percent Concentration Tested” value ([2]; 1 × 10^−6 percent concentration) was “Inactive”.
